Patent EP3270157B1, “SCREENING ASSAY FOR SWEETNESS” (Firmenich SA, priority 2016, dated 2018)
Like-named read-outs stand apart in the source and are kept apart here.

Biological target: T1, T1R2/T1R3 receptor (Homo sapiens, UniProt Q7RTX0+Q8TE23)
T1 sequence (Q8TE23 20-839): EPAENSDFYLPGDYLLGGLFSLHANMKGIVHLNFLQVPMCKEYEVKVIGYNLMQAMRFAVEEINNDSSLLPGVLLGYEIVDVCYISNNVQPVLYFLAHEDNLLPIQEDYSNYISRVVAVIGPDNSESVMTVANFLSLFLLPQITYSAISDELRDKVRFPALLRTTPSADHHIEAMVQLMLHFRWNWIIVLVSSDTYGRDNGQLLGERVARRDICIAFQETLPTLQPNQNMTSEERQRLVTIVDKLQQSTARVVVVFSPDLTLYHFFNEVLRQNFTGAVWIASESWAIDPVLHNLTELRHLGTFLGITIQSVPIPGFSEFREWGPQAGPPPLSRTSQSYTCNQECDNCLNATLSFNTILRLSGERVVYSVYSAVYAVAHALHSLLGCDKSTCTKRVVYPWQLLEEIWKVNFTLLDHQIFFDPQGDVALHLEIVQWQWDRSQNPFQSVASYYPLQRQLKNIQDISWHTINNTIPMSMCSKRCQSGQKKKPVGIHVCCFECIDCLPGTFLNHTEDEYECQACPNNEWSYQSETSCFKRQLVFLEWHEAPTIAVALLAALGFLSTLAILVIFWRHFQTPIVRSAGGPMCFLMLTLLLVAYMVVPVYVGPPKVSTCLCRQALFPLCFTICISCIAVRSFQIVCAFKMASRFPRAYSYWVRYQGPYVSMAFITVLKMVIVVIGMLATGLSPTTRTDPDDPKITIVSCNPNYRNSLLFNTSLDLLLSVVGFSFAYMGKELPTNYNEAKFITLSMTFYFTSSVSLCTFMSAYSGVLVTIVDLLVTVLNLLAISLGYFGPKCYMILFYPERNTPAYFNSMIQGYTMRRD
T1 sequence (Q7RTX0 21-852): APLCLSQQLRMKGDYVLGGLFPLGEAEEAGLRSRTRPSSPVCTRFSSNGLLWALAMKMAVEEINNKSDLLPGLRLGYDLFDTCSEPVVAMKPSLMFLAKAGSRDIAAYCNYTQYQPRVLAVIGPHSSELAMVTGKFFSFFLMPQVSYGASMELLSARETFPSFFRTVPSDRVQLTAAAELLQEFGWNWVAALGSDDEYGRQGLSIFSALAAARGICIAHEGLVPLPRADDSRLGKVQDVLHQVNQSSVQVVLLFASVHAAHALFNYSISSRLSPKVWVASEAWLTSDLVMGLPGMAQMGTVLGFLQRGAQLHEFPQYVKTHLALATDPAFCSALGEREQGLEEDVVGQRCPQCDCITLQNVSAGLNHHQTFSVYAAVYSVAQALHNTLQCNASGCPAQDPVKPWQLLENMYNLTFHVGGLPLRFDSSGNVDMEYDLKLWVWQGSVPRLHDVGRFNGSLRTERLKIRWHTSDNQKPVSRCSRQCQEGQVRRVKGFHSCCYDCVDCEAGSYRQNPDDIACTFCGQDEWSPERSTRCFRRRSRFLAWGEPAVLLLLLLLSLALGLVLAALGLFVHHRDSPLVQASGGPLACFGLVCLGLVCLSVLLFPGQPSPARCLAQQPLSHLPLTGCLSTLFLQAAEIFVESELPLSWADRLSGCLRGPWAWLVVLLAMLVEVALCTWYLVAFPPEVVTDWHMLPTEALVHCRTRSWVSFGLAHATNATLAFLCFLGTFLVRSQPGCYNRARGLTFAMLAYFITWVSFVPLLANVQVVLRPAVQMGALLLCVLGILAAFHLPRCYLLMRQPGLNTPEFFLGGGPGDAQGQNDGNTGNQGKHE
Settings: for sensitivity of the assay to initiate receptor internalisation: comparison among the sweet compounds tested; for increase of chemiluminescence signal / internalisation response with concentration: shape of dose-response curve, Fig. 6A and 6B

[1] = Clone #1057 cells, % (w/v), Fig. 6
[2] = Clone #1057 cells, 3 h at 20°C, n=3, Fig. 6

increase of chemiluminescence signal / internalisation response with concentration | SMILES | concentration at which the maximum response (ΔF/Fmax) was reached [1] | sensitivity of the assay to initiate receptor internalisation (Fig. 6) | other results
 | OC[C@H]1O[C@H](O[C@]2(CCl)O[C@H](CCl)[C@@H](O)[C@@H]2O)[C@H](O)[C@@H](O)[C@H]1Cl [sucralose] | 15% | high sensitivity | concentration at which receptor internalisation responses were initiated (Clone #1057 cells, Fig. 6): already observed at the lowest concentration tested
 | CC1=CC(=O)NS(=O)(=O)O1 [acesulfame-K] |  |  | concentration at which the maximum response (ΔF/Fmax) was reached: 5.5%
 | OC[C@@H](O)[C@@H](O)[C@H](O)[C@H](O)CO [mannitol] | 7.7% |  | maximum level of chemiluminescence (ΔF/Fmax) [2]: nearly equal
rather slow increase | O=C(CO)[C@@H](O)[C@H](O)[C@H](O)CO [fructose] | 9% | highest sensitivity | maximum level of chemiluminescence (ΔF/Fmax) (human, hek293 cells, 3 h): 5.2
 | OC[C@@H](O)[C@@H](O[C@H]1O[C@H](CO)[C@@H](O)[C@H](O)[C@H]1O)[C@H](O)[C@@H](O)CO [maltitol] | 17.0% |  | maximum level of chemiluminescence (ΔF/Fmax) [2]: nearly equal
rather slow increase | OC[C@H]1O[C@@](CO)(O[C@H]2O[C@H](CO)[C@@H](O)[C@H](O)[C@H]2O)[C@@H](O)[C@@H]1O [sucrose] |  |  | 

SMILES | increase of chemiluminescence signal / internalisation response with concentration | concentration at which the maximum response (ΔF/Fmax) was reached [1] | sensitivity of the assay to initiate receptor internalisation (Fig. 6) | other results
OC[C@H]1O[C@H](O[C@H]2[C@H](O)[C@@H](O)[C@H](O)O[C@@H]2CO)[C@H](O)[C@@H](O)[C@@H]1O [maltose] | steep increase | 16.5% | lowest sensitivity of the natural sugars tested | 
